The text below walks through data of patent US10874101B2, “Tolerance improving agent for plants” (PHYTOCHROME INC., priority 2014, dated 2020).

The test system of one data set is HSFA2 gene. Kind of data set: Expression level of HSFA2 gene in Arabidopsis (qPCR). It is filed as in vivo, Arabidopsis thaliana. Conditions: Arabidopsis thaliana, 0.5 h, read-out: relative transcription level (fold), HSFA2 gene. An excerpt:
(§1) Total RNA was extracted using RNeasy Plant Mini Kit (Quiagen), and cDNA was successively synthesized using RevaTra Ace Kit (TOYOBO CO., LTD.).
(§2) HSFA2 gene and DREB2A gene were quantified using SYBR Green qPCR Mix (TOYOBO CO., LTD.), LineGene Real-time PCR detection system (BioFlux).
(§3) The primers used for each gene expression analysis are as described below.
Arabidopsis (Arabidopsis thaliana, Columbia-0) was exposed to the compound shown in Table 2 in a gaseous state (concentration 10 nmol/cm^3) for 30 min (temperature 23° C.), and the expression level of HSFA2 gene was analyzed.
(§4) Arabidopsis was seeded in artificial soil material “Jiffy-7” (SAKATA SEED CORPORATION), cultured for 14 hr in light period/10 hr in dark period at 23° C. for 2-3 weeks and used.
As for `CCC/C=C/C=O` [(E)-2-hexenal], the fold induction at 10 nmol/cm3 worked out at 377.
Take `CC#N` [acetonitrile, reference compound]: the fold induction at 10 nmol/cm3 came out at 1.

Still in this data set, the particulars now being: Arabidopsis thaliana, 0.5 h; Arabidopsis, gaseous state 10 nmol/cm^3, 30 min, 23° C.; relative to acetonitrile as 1; read-out: relative transcription level (fold), HSFA2 gene.
Consider `CCCCCC(C)=O` [2-heptanone, reference compound], for which the fold induction at 10 nmol/cm3 came out at 1.1.
Same read-out and setting: to `CCCC/C=C/C=O` [(E)-2-heptenal] belongs 642; to `CCC/C=C/CO` [(E)-2-hexenol, reference compound], 0.735.
Turning to `CCCCCC/C=C/C=O` [(E)-2-nonenal], the fold induction at 10 nmol/cm3 worked out at 488.
Same read-out and setting: to `CCCCC/C=C/C=O` [(E)-2-octenal] belongs 777; to `CC/C=C/C=O` [(E)-2-pentenal], 470.
For `CCC/C=C/C(C)=O` [(E)-3-hepten-2-one], the fold induction at 10 nmol/cm3 was 266.
With `CC/C=C\CCC=O` [(Z)-4-heptenal], the fold induction at 10 nmol/cm3 was 320.
Still for that read-out and setting: the value for `CC/C=C\CCCCC=O` [(Z)-6-nonenal] was 270.

The data set is the same for the next values; noted with them: Arabidopsis, gaseous state 10 nmol/cm^3, 30 min, 23° C.; relative to acetonitrile as 1.
As for `C/C=C/C=O` [(E)-2-butenal], the “relative transcription level (fold), HSFA2 gene” value stood at 469 fold.
Same read-out and setting: the value for n-hexenal [reference compound] was 7.9 fold.

The next data set has as its system HSFA2 gene. Kind of data set: Expression level of HSFA2 gene in tomato (qPCR). The following applies: tomato (Microtom), gaseous state 10 nmol/cm^3, 30 min, 25° C.; non-exposure as 1. In kind it is in vivo, Solanum lycopersicum. Here is the method: as §1, §2, §3
Tomato (Solanum lycopersicum, Microtom) was exposed to (E)-2-hexenal in a gaseous state (concentration 10 nmol/cm^3) for 30 min (temperature 25° C.), and the expression level of HSFA2 gene was analyzed to find 20.2-fold (relative transcription level with non-exposure to (E)-2-hexenal as 1).
The tomato was seeded in artificial soil material “Jiffy-7” (SAKATA SEED CORPORATION), cultured for 14 hr in light period/10 hr in dark period at 23° C. for 2-3 weeks and used.
(In general: In qPCR the cycle at which signal appears reflects the starting amount.)
Regarding `CCC/C=C/C=O` [(E)-2-hexenal], the “relative transcription level, HSFA2 gene” value is 20.2 fold.

For the next data set, the system named is HSFA2 gene. In words: Expression level of HSFA2 gene in rice (qPCR). In kind it is in vivo, Oryza sativa. Conditions: rice (Nipponbare), gaseous state 10 nmol/cm^3, 30 min, 25° C.; non-exposure as 1. The protocol:
as §1, §2, §3
(§5) Rice (Oryza sativa, Nipponbare) was exposed to (E)-2-hexenal in a gaseous state (concentration 10 nmol/cm^3) for 30 min (temperature 25° C.), and the expression level of HSFA2 gene and DREB2A gene was analyzed. As a result, the expression level of HSFA2 gene was 3.55-fold (relative transcription level with non-exposure to (E)-2-hexenal as 1), and the expression level of DREB2A was 3.93-fold (relative transcription level with non-exposure to (E)-2-hexenal as 1).
(§6) The rice was seeded in artificial soil material “Jiffy-7” (SAKATA SEED CORPORATION), cultured for 14 hr in light period/10 hr in dark period at 23° C. for 2-3 weeks and used.
`CCC/C=C/C=O` [(E)-2-hexenal]: the “relative transcription level, HSFA2 gene” value was 3.55 fold.

A further data set has as its system DREB2A gene. In words: Expression level of DREB2A gene in rice (qPCR). It is filed as in vivo, Oryza sativa. Conditions: rice (Nipponbare), gaseous state 10 nmol/cm^3, 30 min, 25° C.; non-exposure as 1. The protocol:
as §1, §2, §3, §5, §6
In the case of `CCC/C=C/C=O` [(E)-2-hexenal], the “relative transcription level, DREB2A gene” value came out at 3.93 fold.

A further data set deals with Arabidopsis (Arabidopsis thaliana, Columbia-0). Kind of data set: Survival rate of Arabidopsis after high temperature treatment. In kind it is in vivo. The following applies: gaseous state 10 nmol/cm^3 for 120 min, then 120 min at 40-45° C. in light; relative to non-exposure sample as 100(%). Here is the method: Arabidopsis (Arabidopsis thaliana, Columbia-0) was exposed to the compound shown in Table 3 in a gaseous state (concentration 10 nmol/cm^3) for 120 min, left standing for 120 min in an environmental control chamber (manufactured by NIPPON MEDICAL & CHEMICAL INSTRUMENTS CO., LTD.) set to 40-45° C. and in the presence of light (100 μmol/m^2·s), and the survival rate after lapse of 3 days was measured.
as §4
In Table 3, the survival rate is a relative value with the survival rate of a non-exposure sample (sample left standing at 45° C. for 120 min without exposure to the compound) as 100(%).
Take `C/C=C/C=O` [(E)-2-butenal]: the “survival rate (%) after 3 days” value is listed as 140%.
On the same count and under the same terms, the value for `CCC/C=C/C=O` [(E)-2-hexenal] was 170%; that for `CCC/C=C/C(C)=O` [(E)-3-hepten-2-one] was 159%.

A further data set has as its system photochemical system II. Kind of data set: Photosynthesis activity (Fv/Fm) of Arabidopsis. In kind it is in vivo, Arabidopsis thaliana. Conditions: gaseous state 25 nmol/cm^3, 120 min, 25° C., light 100 μmol/m^2·s, dark adaptation 5 min. The protocol:
The photosynthesis activity was measured using the maximum quantum yield (Fv/Fm) of photochemical system II as an index. Test plant object was subjected to dark adaptation (for 5 min), and Fv/Fm was measured using photosynthesis measuring apparatus Junior-PAM (Walz). The measurement was performed at least three times for different sites of the leaf and the averaged numerical value was taken as photosynthesis activity.
Arabidopsis (Arabidopsis thaliana, Columbia-0) was exposed to the compound shown in Table 4 in a gaseous, state (concentration 25 nmol/cm^3) for 120 min (temperature 25° C.) in the presence of light (100 μmol/m^2·s), subjected to a dark adaptation treatment for 5 min, and photosynthesis activity (Fv/Fm) was measured.
as §4
On to `C=CC=O` [2-propenal, reference compound], for which the “photosynthesis activity (Fv/Fm)” value worked out at 0.393.
Take `C/C=C/C=O` [(E)-2-butenal]: the “photosynthesis activity (Fv/Fm)” value is given as 0.726.
On the same count and under the same terms, to `CCCCCCC/C=C/C=O` [(E)-2-decenal] belongs 0.753; to `CCCC/C=C/C=O` [(E)-2-heptenal], 0.748; to `CCC/C=C/C=O` [(E)-2-hexenal], 0.739.
The same measure, in the same setting: the value for `CCCCCC/C=C/C=O` [(E)-2-nonenal] was 0.741.
Still for that read-out and setting: the value for `CCCCC/C=C/C=O` [(E)-2-octenal] was 0.732; that for `CC/C=C/C=O` [(E)-2-pentenal] was 0.710.
As for `CC/C=C\CCC=O` [(Z)-4-heptenal], the “photosynthesis activity (Fv/Fm)” value was found to be 0.743.
For `CC/C=C\CCCCC=O` [(Z)-6-nonenal], the “photosynthesis activity (Fv/Fm)” value worked out at 0.745.
In the case of `CC#N` [acetonitrile, reference compound], the “photosynthesis activity (Fv/Fm)” value came out at 0.729.

Another data set relates to HSP17.6-C. In words: Expression level of HSP gene HSP17.6-C in Arabidopsis (microarray). It is filed as in vivo, Arabidopsis thaliana. The following applies: gaseous state 10 nmol/cm^3, 30 min, 23° C., non-exposure as 1. The protocol: (§7) HSP gene was quantified by microarray analysis. The total RNA was extracted using RNeasy Plant Mini Kit (Quiagen), and double stranded cDNA was synthesized using Superscript Choice System (Life Technologies). cDNA was labeled with Cy3 by using NimbleGen One-color Labeling Kit (NimbleGen), and hybridized to DNA array (ATH6_60 mer_expr X4, NmibleGen) at 42° C. for 6 hr. DNA array was washed, Cy3 fluorescence intensity was measured by Axon GenePix 4000B scanner (NimbleGen) and quantified.
(§8) Arabidopsis (Arabidopsis thaliana, Columbia-0) was exposed to (E)-2-hexenal in a gaseous state (concentration 10 nmol/cm^3) for 30 min (temperature 23° C.), and the expression level of HSP genes (HSP17.6-C, HSP17.6-A) was analyzed.
as §4
`CCC/C=C/C=O` [(E)-2-hexenal]: the “Relative transcription level (fold) HSP17.6-C” value was found to be 45.9 fold.

The test system of another data set is HSP17.6-A. In words: Expression level of HSP gene HSP17.6-A in Arabidopsis (microarray). It is filed as in vivo, Arabidopsis thaliana. Conditions: gaseous state 10 nmol/cm^3, 30 min, 23° C., non-exposure as 1. Here is the method: as §7, §8, §4
Consider `CCC/C=C/C=O` [(E)-2-hexenal], for which the “Relative transcription level (fold) HSP17.6-A” value was 36.3 fold.
